# In patent US5912258A, “Thiadiazoleamide derivative and anti-ulcer drug” (Shiseido Co., Ltd., priority 1998, dated 1999):
# Tests used:
# [1] = tested on: isolated gastric fundic gland; experiment: CAP: Acid Secretion Inhibition Test in vitro ([^14 C]-aminopyrine uptake); type: cell-based, male Japanese White rabbit; conditions: Oryctolagus cuniculus, rabbit isolated gastric fundic gland, 10^-5 M, histamine 10^-5 M; read-out: CAP: Acid secretion inhibitory rate
# Protocol: CAP: Acid Secretion Inhibition Test in vitro (i) Meaning The acid secretion inhibitory activity in a cell level is studied. It can also be used for studying the mechanism of the effect. (ii) Method (ii)-(a) Preparation of isolated gastric gland suspension First, an isolated gastric fundic gland sample was prepared. Namely, a male Japanese White rabbit (2.5 to 3 kg) was anesthetized to death with Nembutal™ and then the abdomen was incised. Immediately thereafter, the stomach was removed and, after its pyloric and cardiac antrum were severed, incised along its greater curvature into two sheets. The gastric contents adhering to the mucosal surface was washed out with ice-cooled PBS (-) and then carefully washed therein. The gastric wall was spread on a cork board with its mucosal surface facing up and the feed and mucus thereon were completely removed with sterile gauze. The mucosa was separated therefrom by a spatula and then collected in ice-cooled PBS (-). After being washed twice with PBS (-), the mucosa was minced into 2-3 mm^3 pieces by scissors. These pieces were further washed twice with a nutrient solution. The nutrient solution comprises 132.4 mM of NaCl, 5.4 mM of KCl, 5 mM of Na2 HPO4 ·12H2 O, 1 mM of NaH2 PO4 ·2H2 O, 1.2 mM of MgSO4, 1 mM of CaCl2, 25 mM of HEPES, 2 mg/ml of glucose, and 1 mg/ml of BSA. Into 70 ml of the nutrient solution containing 1 mg/ml of collagenase, minced mucosal pieces were dispersed and intensely stirred in a conical flask with a stirrer at 37° C. for 40 to 60 minutes. […] The nutrient solution was added to the reaction solution so as to attain the total amount of about 200 ml. After being filtered through a mesh, the suspension was divisionally introduced into 50 ml centrifuge tubes and left for 15 minutes such that gastric fundic gland was deposited. The supernatant was repeatedly removed by an aspirator, dispersed in the nutrient solution, and then left such that the gastric fundic gland was washed three times. At this time, without using a pipette, the suspension was alternately introduced into two centrifuge tubes so as to effect dispersion. The number of cells was counted under microscope and adjusted to 1.6×10^6 cells/ml. (ii)-(b) [^14 C]-aminopyrine uptake test Then [^14 C]-aminopyrine uptake test was performed. After an Eppendorf tube was weighed, 10 μl (final concentration: 10^-5 M) of histamine dissolved in the above-mentioned nutrient solution, 10 μl (final concentration: 10 ^-5 M) of the test compound dissolved in DMSO, and 10 μl (final concentration: 0.05 μCi/ml) of [^14 C]-aminopyrine diluted with the nutrient solution were introduced therein and then 970 μl of the isolated gastric fundic gland suspension prepared above were added thereto. Subsequently, this mixture was shaken at 37° C. for 40 minutes at 125 cycles/minute. After being centrifuged for 30 minutes 200 μl of its supernatant was collected into a mini-vial, while the rest was removed by an aspirator. The gland pellet was completely dried as the tube with its lid being opened was kept for one night in a drying oven at 80° C. and then the weight was determined at room temperature. Then 100 μl of 1N KOH was added thereto an the tube with its lid being closed was treated at 60° C. for 1 to 2 hours so as to dissolve the pellet. Then, the contents thereof were transferred to a mini-vial. Into the mini-vial containing the supernatant or gland pellet, 4 ml of Atomlite™ was added and then the radioactivity was measured by a liquid scintillation counter. Here, after the radioactivity of the gland pellet was corrected by using a sample in which 20 mM of NaSCN was added so as to cancel the hydrogen ion concentration gradient, the integration ratio of aminopyrine specifically trapped by the gland pellet was calculated. This experiment was performed in duplicate. (ii)-(c) Calculation of the accumulation rate of aminopyrine Here, its principle will be briefly explained. […]
# [2] = MTT: Cell Damaging and Protecting Effect Test; type: cell-based, male Japanese White rabbit; conditions: rabbit, gastric mucosa cells, 10^-4 M, smaller value is better, read-out: MTT: cell damaging rate
# Excerpt: MTT: Cell Damaging and Protecting Effect Test
# It is confirmed that there is no toxicity in cell level. Those having toxicity in cell level are inappropriate as an anti-ulcer drug.
# A male Japanese White rabbit (2.5 to 3 kg) was anesthetized to death by Nembutal™ and, immediately thereafter, its stomach was removed. The greater curvature of the stomach was incised so as to remove the stomach contents therefrom. After the mucosal surface was washed with HBSS (Hank's Balanced Salt Solution), the stomach in ice-cooled HBSS was transferred to a laboratory. Then, after the pyloric antrum was removed, the gastric corpus mucosa was separated by a spatula and then minced into 2 to 3 mm pieces in BME (Basal Medium Eagle). Thereafter, these pieces were shaken at 120 to 130 cycles/minute for 15 minutes at 37° C. in BME 60 ml containing 280 U/ml of dispase and 30 to 50 U/mil of collagenase. Here, the concentration of collagenase was appropriately changed for each lot in view of the state of cells. The pieces were washed twice with EBSS (Earle's Balanced Salt Solution) containing 1 mM of EDTA and then shaken in MEM (Minimum Essential Medium) containing 1 mM of EDTA at 37° C. for 5 minutes. Subsequently, they were shaken in the dispase and collagenase having the same concentrations as those mentioned above for 15 minutes so as to remove the supernatant and then further shaken at 37° C. for 50 to 60 minutes at 120 to 130 cycles/minute. Then, after being washed twice with HBSS, Ham F12 containing 2% of Ultrocer G™ was used to attain the concentration of 1×10^6 cells/ml. Thus formed suspension was dispensed in each well of a 96-well plate by 200 μl. The plate was incubated in the atmosphere composed of 5% CO2 and 95% air at 37° C. for three days so as to attain a confluent state and then subjected to MTT assay.
# The sample compound was dissolved in DMSO so as to attain a concentration of 10^-2 M and then diluted with HBSS containing 2% of Ultrocer G™ so as to attain a final concentration of 10^-4 M. To each group, which 8 wells were used for, 10 μl of MTT reagent was added immediately after 100 μl of the medium in each well was exchanged for same volume of the resulting solution of the sample compound. After being incubated in an atmosphere composed of 5% CO2 and 95% air at 37° C. for 4 hours, thus formed solution was centrifuged and then its supernatant was discarded. Subsequently, 100 μl of 100% ethanol was added to the residue so as to dissolve MTT formazan. Then, the absorbance (OD: 570 to 630) was measured by a microplate reader. This method utilizes a phenomenon in which MTT is changed to MTT formazan only by mitochondria of living cells so as to change color.
# The cell damaging or cell protecting effect of the sample compound at the final concentration of 10^-4 M was expressed as cell damaging rate (%) as follows:
# cell damaging rate (%)={1-(absorbance in sample group/absorbance in control group)}×100
# Accordingly, the smaller value is better in the cell damaging rate.
SMILES,inhibition at 10 µM [1] [%],"cytotoxicity at 4 h, 100 µM [2] [%]"
"CCN(CC)CCSc1nnc(NC(=O)c2ccc(C(C)C)cc2)s1 [Example 1, 2-(4-isopropylbenzoyl)amino-5-diethylaminoethylthio-1,3,4-thiadiazole]",101,22
"CC(C)=CCC/C(C)=C/COc1ccc(C(=O)Nc2nnc(SCCN3CCCCC3)s2)cc1 [Example 12, 2-(4-geranyloxybenzoyl)amino-5-piperidinoethylthio-1,3,4-thiadiazole]",99,12
"CC(C)=CCC/C(C)=C/COc1ccc(C(=O)Nc2nnc(SCc3ccccn3)s2)cc1 [Example 14, 2-(4-geranyloxybenzoyl)amino-5-(2-pyridylmethyl)thio-1,3,4-thiadiazole]",45,-13
"CCN(CC)CCSc1nnc(NC(=O)c2ccc(OC/C=C(\C)CCC=C(C)C)cc2)s1 [Example 10, 2-(4-geranyloxybenzoyl)amino-5-diethylaminoethylthio-1,3,4-thiadiazole]",100,17
"CCN(CC)CCSc1nnc(NC(=O)c2ccc(C(C)(C)C)cc2)s1 [Example 4, 2-(4-tert-butylbenzoyl)amino-5-diethylaminoethylthio-1,3,4-thiadiazole]",100,22
"CCSc1nnc(NC(=O)c2ccc(OC/C=C(\C)CCC=C(C)C)cc2)s1 [Example 15, 2-(4-geranyloxybenzoyl)amino-5-ethylthio-1,3,4-thiadiazole]",17,1
"CC(C)c1ccc(C(=O)Nc2nnc(SCCN(C(C)C)C(C)C)s2)cc1 [Example 2, 2-(4-isopropylbenzoyl)amino-5-diisopropylaminoethylthio-1,3,4-thiadiazole]",100,
